The values that follow come from US10213470B2, “Method for treating spinocerebellar ataxias” (NATIONAL TAIWAN NORMAL UNIVERSITY, priority 2015, dated 2019).

For one assay, the system named is NO. Put plainly: NO secretion in LPS-stimulated RAW 264.7 macrophages (Griess reagent). The class given is cell-based, Mouse. Particulars: 50 μM, 8 h pre-treatment, LPS 1 μg/mL 20 h. As to the method: (§1) Human 293 ATXN3/Q75-GFP cells were cultured in Dulbecco's modified Eagle's medium (DMEM) containing 10% fetal bovine serum (FBS), 5 μg/mL blasticidin, and 100 μg/mL hygromycin (InvivoGen). Human neuroblastoma SH-SY5Y cells (ATCC No. CRL-2266) were cultured in DMEM F12 supplemented with 10% FBS. Mouse RAW 264.7 macrophages and BV-2 microglia were cultured in DMEM containing 10% FBS. Cells were all cultured in a 37° C. incubator containing 5% CO2.
(§2) The anti-inflammatory activity of SK Tang was examined using LPS-stimulated RAW 264.7 macrophage and BV-2 microglia. RAW 264.7 cells (10^6) were cultured in 6-well plates for 20 h and pre-treated with celecoxib, which is a nonsteroidal anti-inflammatory drug (named as Cele. in FIGS. 4A-4D) (50 μM) or SK Tang (0.5-2 mg/mL) for 8 h. Next, cells were stimulated by LPS (1 μg/mL) for 20 h. LPS-induced secretions of NO, TNF-α, IL-1β, and IL-6 in RAW 264.7 cells were then determined using Griess reagent or ELISA assay.
(§3) To normalize data, the relative NO/TNF-α/IL-1β/IL-6 level in LPS-stimulated cells is set as 100%. As shown in FIGS. 4A-4D, the exposure of RAW 264.7 cells to LPS results in significant secretions of NO, TNF-α, IL-1β, and IL-6 after 24 h incubation (1-12% vs. 100%, P<0.001). […]

A further assay concerns TNF-α. Put plainly: TNF-α secretion in LPS-stimulated RAW 264.7 macrophages (ELISA). To be noted: 50 μM, 8 h pre-treatment, LPS 1 μg/mL 20 h. The class given is cell-based, Mouse. The procedure: as §1, §2, §3
(In general: In an ELISA, binding on a coated surface is turned into a signal by an enzyme label.)

In the next assay the test system is IL-1β. Put plainly: IL-1β secretion in LPS-stimulated RAW 264.7 macrophages (ELISA). The class given is cell-based, Mouse. Particulars: 50 μM, 8 h pre-treatment, LPS 1 μg/mL 20 h. As to the method: as §1, §2, §3
For another assay, the system named is IL-6. Kind of assay: IL-6 secretion in LPS-stimulated RAW 264.7 macrophages (ELISA). Type of assay: cell-based, Mouse. Particulars: 50 μM, 8 h pre-treatment, LPS 1 μg/mL 20 h. The procedure:
as §1, §2, §3

Assay [1] relates to ATXN3/Q75 aggregation in 293 ATXN3/Q75-GFP cells. Put plainly: ATXN3/Q75 aggregation analysis by high-content analysis in 293 ATXN3/Q75-GFP cells. Type of assay: cell-based, Human. To be noted: at 100 nM; 8 h pre-treatment, then doxycycline and oxaliplatin 6 days. As to the method:
as §1
293 ATXN3/Q75-GFP cells were cultured in 96-well (2×10^4/well) plates for 24 h and treated with different concentrations of suberoylanilide hydroxamic acid (SAHA, Cayman Chemical) (100 nM), Paeonia lactiflora, Glycyrrhiza uralensis, or Shao Yao Kan Tsao Tang (SK Tang) (0.01-10 μg/mL) for 8 h. Next, doxycycline (10 μg/mL, BD) and oxaliplatin (5 μM, Sigma) were added for 6 days. Cells were then stained with Hoechst 33342 (0.1 μg/mL, Sigma-Aldrich). Aggregation was then analyzed by high-content analysis (HCA) system (ImageXpressMICRO, Molecular Devices). The histone deacetylase inhibitor SAHA, known to reduce SDS-insoluble polyQ aggregates, was included for comparison.
To normalize data, the relative aggregation level in untreated cells is set as 100%. […] Good aggregation-inhibitory potential can be seen from Paeonia lactiflora (75-78% at 1-10 μg/mL), Glycyrrhiza uralensis (73-85% at 0.01-1 μg/mL), and SK Tang (79-84% at 0.01-10 μg/mL). […]

For `Cc1ccc(-c2cc(C(F)(F)F)nn2-c2ccc(S(N)(=O)=O)cc2)cc1` [celecoxib], in the assay on NO, the “NO level relative to LPS-stimulated cells (100%)” value worked out at 39%. Besides, in the assay with TNF-α, the “TNF-α level relative to LPS-stimulated cells (100%)” value was determined as 23%. Moreover, the “IL-1β level relative to LPS-stimulated cells (100%)” value in the assay on IL-1β is on record as 20%. Also, in the assay with IL-6, the “IL-6 level relative to LPS-stimulated cells (100%)” value is 29%.

On to `O=C(CCCCCCC(=O)Nc1ccccc1)NO` [SAHA, suberoylanilide hydroxamic acid], for which, in assay [1], the “ATXN3/Q75 aggregation relative to untreated cells (100%)” value came out at 85%.
